Test results taken from US20230392124A1, “METHODS AND COMPOSITIONS FOR IMPROVING SC-BETA CELLS OR ENHANCING THEIR UTILITY” (Washington University, priority 2020, published 2023).

Tests used:
Type in all cases: cell-based, human
[1] = system: SC-β cells; experiment: Refining stage 6 ESFM: components on top of base media, GSIS stimulation index; settings: in ESFM, 20 mM; by increasing insulin secretion at low glucose
Experimental: Base Media • MCDB131 • 10% BSA • Glutamax • P/S • Glucose • Zn 10 μM
Treatment on Top of Base Media • 1-Trace A 1:1000 • 2-Trace B 1:1000 • 3-Trace C 1:1000 • 4-Heparin 10 μg/mL • 5-NEAA 1:100 • 6-Vitamin C 250 μM • 7-NaHCO320 mM • 8-Defined Lipid Mixture 1:1000 • 9-Defined Lipid Mixture 1:1000 • 10-Base • 11-S6 w/water dilution 1:100 • 12-S6 no water dilution
All samples had same total dilution of 1:100 with water to maintain same osmolarity amongst samples.

[2] = system: SC beta cell differentiation; experiment: Other modifications to the differentiation protocol, differentiation markers; settings: for PDX1/NKX61 co expression: treatment during S4
Text: (§1) Other Modifications with Benefits (See e.g., FIG. 90-FIG. 95). • Y and Blebbistatin treatment during stage 4 of differentiation • Reducing volume of media • Wnt modification—IWP2 treatment during s1d2-d4 • bFGF treatment during stage 1 • Betacellulin removal during S5 • Other compound treatments during Stage 6

[3] = system: stem cells in SC-β cell protocol; experiment: Cytoskeletal modulating compounds added for first 24 hours of stages of the SC-β cell protocol, gene expression; settings: added during stage 1, read at S2d1
Experimental: Small molecules that influence the state of the cytoskeleton were added for first 24 hours of various stages of the SC-β cell protocol.

[4] = system: SC-beta cells; experiment: Compound treatments during Stage 6 (s6d1-7), insulin secretion; settings: treatment during s6d1-7
Text: as §1

[5] = system: WS4^corr stage 6 cells; experiment: ER stress study: thapsigargin treatment, static GSIS, real-time PCR and western blot
Experimental: (§2) For static GSIS, approximately 30 stage 6 clusters were placed in transwells (Corning), equilibrated for 1 hr in 2 mM glucose KRB (TABLE 6), and challenged with sequential 1-hr 2 and 20 mM KRB treatments. For dynamic GSIS, clusters were loaded into a cell chamber, perfused with buffer at 100 μL/min, and equilibrated in 2 mM glucose KRB for 90 min. The samples were then challenged for 12 min at 2 mM, 24 min at 20 mM, and 12 min at 2 mM glucose KRB, collecting effluent every 2-4 min. Human insulin was quantified with ELISA and data normalized to cell counts from Vi-Cell XR or DNA quantification using Quant-iT Picogreen dsDNA assay kit (Invitrogen).
(§3) Detection of phosphorylated and total eIF2α as performed by lysing cells in 1% Triton buffer (20 mM HEPES, pH 7.5, 150 mM NaCl, 1% Triton X-100, 10% glycerol (Sigma), 1 mM EDTA, 10 mM tetrasodium pyrophosphate (Sigma), 17.5 mM β-glycerophosphate (Sigma), PhosSTOP (Roche), and complete protease inhibitor cocktail (Roche). Detection of all other proteins was done by lysing cells in M-PER Mammalian Protein Extraction Reagent (Thermo Scientific) supplemented with cOmplete protease inhibitor cocktail. After 30 min incubation on ice, samples were centrifuged, supernatants collected, and protein-equivalent samples were loaded onto 4-20% Mini-PROTEAN TGX Precast Protein Gels (Bio-Rad) and transferred to an Immobilon-P PVDF Membrane (Millipore). The membrane was treated with 5% skimmed milk for 1 hr at RT and probed with the primary antibodies. The antibodies were detected using HRP-linked secondary antibodies. The density of each band was quantified using Image Lab software (Bio-Rad).
(§4) RNA was extracted with the RNeasy Mini Kit (Qiagen) with DNase treatment (Qiagen), cDNA was synthesized with the High Capacity cDNA Reverse Transcriptase Kit (Applied Biosystems using a thermocycler (Applied Biosystems), real-time PCR reactions were generated with PowerUp SYBR Green Master Mix (Applied Biosystems) using a StepOnePlus (Applied Biosystems), and data analyzed using ΔΔCt methodology. TBP and GUSB were used as normalization genes. Primer sequences used can be found in TABLE 8.
(§5) Cells were incubated for 48 hr with 10 μM Thapsigargin (EMD Chemicals), 30 mM glucose, or a cytokine mix including 500 ng/mL IFNγ (R&D Systems), 500 ng/mL TNFα (R&D Systems), and 100 ng/mL […] (R&D Systems).

[6] = system: WS4^unedit stage 6 cells; experiment: as above
Experimental: as §2, §3, §4, §5

[7] = system: INS-mCherry+ cells; experiment: mCherry/INS reporter cell line, β cell health
Text: Stage 6 INS+/−mcherry SC-islets can be single cell dispersed, sorted for INS+ SC-β cells, and treated with a SERCA pump inhibitor (thapsigargin) to reduce insulin secretion for high throughput drug screening.

[8] = system: Stage 6 SC-Beta cells; experiment: Compounds to improve SC-beta cells: 7 day culture, qPCR of 10 genes; settings: 1 μg/mL, 6 days, qPCR vs Control 1
Experimental: Cultured 14 wells of 6-well plates containing Stage 6 SC-Beta cells differentiated in suspension by Punn. Two wells served as controls.
Each well was cultured in one of the following for 7 days*: • […] IFN Gamma • […] TNF Alpha • […] IL-1 Beta • Mixture of the above cytokines • 10% FBS • 10, 1, and 0.1 μM A83-01 • 10, 1, and 0.1 μM Alk5i Ill • 1 μg/mL Lefty A (*cultured for 6 days)
Ran qPCR and compared everything to Control 1 (had smallest Ct SD).

[9] = 10 μM Thapsigargin, 48 hr, static GSIS, WS4^corr stage 6 cells

For `O=C([O-])O.[Na+]` [NAHCO3], the “stimulation index (GSIS)” value [1] was “reduces stimulation index”.

With `C[C@@H](N)[C@H]1CC[C@H](C(=O)Nc2ccncc2)CC1` [Y] the PDX1/NKX61 co expression [2] was “Improves”.

For `CCCCCCCCCCCCC/C=C/[C@@H](O)[C@@H](N)COP(=O)(O)O` [s1p], the “expression of the mesoderm marker Brachyury T” value [3] was “greatly increases”.

In the case of `Cc1ccc2nc(NC(=O)CSc3nc4c(c(=O)n3-c3ccccc3)SCC4)sc2c1` [IWP2], the “PDX1 yield at S3” value ([2]; during Sd2-d4) is reported as “promotes”.

For “bFGF: growth factor added during stage 1”, the differentiation ([2]; treatment during Stage 1) was “improves differentiation”.

In the case of `Cc1ccc2c(c1)C(=O)C1(O)CCN(c3ccccc3)C1=N2` (stereo not drawn) [Blebbistatin], the PDX1/NKX61 co expression [2] is reported as “Improves”.

With `OC[C@H]1OC(O)[C@H](O)[C@@H](O)[C@@H]1O` (stereo partly drawn) [High Glucoses] the insulin secretion [4] was “increases”.

`C=C1[C@@H](C)[C@H]2[C@H](Cc3ccccc3)NC(=O)[C@]23[C@H](OC(C)=O)/C=C/[C@@](C)(O)C(=O)[C@@H](C)C/C=C/[C@H]3[C@@H]1O` [CytoD] was tested, and the insulin secretion [4] was “increases”.

With `C/C=C(/C)C(=O)O[C@H]1C(C)=C2[C@H]([C@@H]1OC(=O)CCCCCCC)[C@@](C)(OC(C)=O)C[C@H](OC(=O)CCC)[C@@]1(O)[C@H]2OC(=O)[C@@]1(C)O` [thapsigargin] the “decrease of insulin secretion” value [5, 9] was 3.9±0.7 ×, the glucose-responsiveness [5, 9] was “eliminating glucose-responsiveness” and the known stress markers ([5]; real-time PCR and western blot, bulk stage 6 population, WS4^corr cells) was “increasing known stress markers”. The insulin secretion ([6]; 10 μM Thapsigargin, 48 hr, static GSIS, WS4^unedit stage 6 cells) was “not affected”, the known stress markers ([6]; real-time PCR and western blot, bulk stage 6 population, WS4^unedit cells) was “increasing known stress markers” and the De-differentiation signatures [7] was “De-differentiation signatures occur”. The “mCherry fluorescence (insulin expression)” value [7] was “reduces mCherry fluorescence”.

B1: Lefty A: factor added to stage 6 culture at 1 μg/mL (protein, UniProt O00292 77-366, looked up)
Left-right determination …: RFSQSFREVAGRFLASEASTHLLVFGMEQRLPPNSELVQAVLRLFQEPVPKAALHRHGRLSPRSAQARVTVEWLRVRDDGSNRTSLIDSRLVSVHESGWKAFDVTEAVNFWQQLSRPRQPLLLQVSVQREHLGPLASGAHKLVRFASQGAPAGLGEPQLELHTLDLRDYGAQGDCDPEAPMTEGTRCCRQEMYIDLQGMKWAKNWVLEPPGFLAYECVGTCQQPPEALAFNWPFLGPRQCIASETASLPMIVSIKEGGRTRPQVVSLPNMRVQKCSCASDGALVPRRLQP
B1 was tested, and the NKX6-1 expression [8] was “slightly decreased” and the “genes with increased expression (IAPP, SIX2, CHGA, SIX3, G6PC2, MAF B)” value [8] was 6/10.

B2: BC: Betacellulin, stage 5 factor (protein, UniProt P35070 32-111, looked up)
Betacellulin: DGNSTRSPETNGLLCGDPEENCAATTTQSKRKGHFSRCPKQYKHYCIKGRCRFVVAEQTPSCVCDEGYIGARCERVDLFY
modifications: Betacellulin
notes: Betacellulin, stage 5 factor
With B2 the “requirement for Beta cell induction” value ([2]; removal during S5) was “not required”.
